The record followed here is article PMC9412534, “Diindolylmethane Derivatives: New Selective Blockers for T-Type Calcium Channels” (Membranes, 2022).

The term IC50 denotes the concentration that gives 50% inhibition.

One assay concerns CaV1. As to the kind of experiment: HVA L-type calcium channel FLIPR assay in SH-SY5Y cells. Particulars: 1 µM CVID present, n = 3, read-out: IC50 CaV1 (HVA CaVs). The class given is cell-based, human. As for the experimental part:
The human embryonic kidney 293 (HEK 293) cell lines (from Emmanuel Bourinet, Montpellier, France) stably expressing CaV3.2 or CaV3.3 were cultured under 5% carbon dioxide at 37 °C in Dulbecco’s Modified Eagle Medium (DMEM) Glutamax (Gibco, Life Technologies, Carlsbad, CA, USA) supplemented with 10% (v/v) fetal bovine serum (FBS), 100 U/mL penicillin, 100 μg/mL streptomycin (Gibco, Life Technologies, Carlsbad, CA, USA), and 750 μg/mL geneticin (G418) (Gibco, Life Technologies). The Chinese Hamster Ovary (CHO) cell lines (Emmanuel Bourinet, Montpellier, France) expressing CaV3.1 were cultured under 5% carbon dioxide at 37 °C in Alpha Minimum Essential Media (MEM) Glutamax (Gibco, Life Technologies), supplemented with 10% (v/v) fetal bovine serum (FBS) and 300 μg/mL geneticin (G418) (Gibco, Life Technologies). The human neuroblastoma SH-SY5Y cells (Victor Diaz, Goettingen, Germany) were cultured under 5% carbon dioxide at 37 °C in RPMI 1640 antibiotic-free medium (Invitrogen, Carlsbad, CA, USA), supplemented with 15% FBS and 2 mM GlutaMAX™ (Invitrogen). D-PBS (Gibco, Life Technologies) was used to wash the cells, and 0.25% Trypsin-EDTA (Gibco, Life Technologies) was used to detach cells from the flask surface. They were split in a ratio of 1:5 (ideally 1000 cells/cm^2) when they reached 70–80% confluence (every 2–3 days). Transiently transfected CaV3.1 HEK293 T cells were used in FLIPR Assays. HEK 293 T cells were cultured under 5% carbon dioxide at 37 °C in DMEM supplemented with 10% (v/v) FBS. D-PBS was used to wash the cells, and 0.25% Trypsin-EDTA was used to detach cells from the flask surface. The cells were split and seeded at 6 million cells per T175 flask, to reach 70–80% confluence after 24 h. The next day, 12 μg DNA of human CaV3.1 was incubated in 900 μL serum-free DMEM with 36 μL FuGENE HD transfection reagent (Promega Corporation, Madison, WI, USA) (1:3 DNA/Fugene ratio) for 20 min, and then the mixture was added into the cell flask slowly, drop by drop. After the transfection, the cells were cultured under 5% carbon dioxide at 37 °C for 24 h and then moved to a 28 °C incubator.
(§1) SH-SY5Y cells were seeded into 384-well black wall clear bottom plates at a density of 15,000 cells per well, resulting in 90–95% confluence after 24 h. The media were then removed from the wells and replaced with 20 μL of 10% calcium 4 dye (Molecular Devices) in physiological salt solution (PSS) (containing 5.9 mM KCl, 1.4 mM MgCl2, 10 mM HEPES, 1.2 mM NaH2 PO4, 5 mM NaHCO3, 140 mM NaCl, 11.5 mM glucose, and 1.8 mM CaCl2, pH 7.4) with 0.1% BSA. As reported, for N-type calcium channel FLIPR assays the cells were pre-incubated with 10 µM nifedipine added in the dye to ensure full inhibition of L-type calcium responses. For L-type calcium channel FLIPR assays, the cells were pre-incubated with 1 µM CVID added in the dye to ensure full inhibition of N-type calcium responses. Positive control on the first reagent plate contained 15 μL of PSS (0.1% BSA), whereas PSS (0.1% BSA) containing 1 µM CVID and 10 µM nifedipine (final concentration) was used as a negative control. The fluorescence readings were recorded and converted as described previously, and agonist containing 90 mM KCl + 5 mM CaCl2 was used in the second addition.

The test system of assay [1] is voltage-gated calcium channels (VGCC). Briefly: VGCC FLIPR cell-based assays, all channels (overall observation). Details: species or system human. As for the experimental part:
HEK 293 cells stably expressing CaV3.2 or CaV3.3 were seeded into 384-well black wall clear bottom plates (Corning) at a density of 30,000 cells per well. Transiently transfected CaV3.1HEK293 T cells were seeded into 384-well black wall clear bottom plates at a density of 60,000 cells per well. Once the cells reached 90–95% confluence after 24 h, the media were removed from the wells and replaced with 20 μL of 10% calcium 4 dye (Molecular Devices, Sunnyvale, CA, USA) in HBSS-HEPES (containing 5 mM KCl, 10 mM HEPES, 140 mM NaCl, 10 mM glucose, and 0.5 mM CaCl2, pH 7.4) with 0.1% bovine serum albumin (BSA). The cells were incubated for 30 min at 37 °C in the presence of 5% carbon dioxide. Each well on the reagent plates for the first addition contained 15 μL different concentrations of compounds dissolved in HBSS-HEPES containing 0.1% BSA and <0.5% DMSO and was incubated for 20 min after loaded. Positive and negative controls contained 15 μL of HBSS-HEPES (0.1% BSA) alone. The plates were placed in the FLIPR^TETRA (Molecular Devices, Sunnyvale, CA, USA) programmed to measure maximum fluorescence intensity following a second addition of the agonist 5 mM CaCl2. The fluorescence readings were recorded and converted as described previously, and HBSS-HEPES (0.1% BSA) was used in the second addition as a negative control.
as §1

The test system of assay [2] is MCF-7, T-47D, A549 and HT-29 cells. Briefly: Cell viability MTT assay, four cancer cell lines (overall). Particulars: 50 µM, 72 h. The class given is cell-based, human. As to the method: Human breast cancer cell line MCF-7 and T-47D, lung cancer cell line A549, and colon cancer cell line HT-29 were cultured under 5% carbon dioxide at 37 °C in DMEM Glutamax (Gibco, Life Technologies) supplemented with 10% (v/v) FBS. They were split in a ratio of 1:3–1:6 (ideally 2–4 × 10,000 cells/cm^2) when they reached 70–80% confluence using 0.25% Trypsin-EDTA. For cell viability MTT assay, cells were seeded into 96-well clear bottom culture plates (Corning, Lowell, MA, USA) at a density of 5 × 10^3 cells/well and settled at 37 °C for 24 h.
Seeded cells were treated with various concentrations of compounds for desired time period (24, 48 and 72 h). After the treatments, the media were removed from each well, and replaced with 25 μL of serum-free media and 25 μL of MTT Reagent (cat. no., ab211091; Abcam, Cambridge, MA, USA). The plate was then incubated at 37 °C for 3 h, and 75 μL of MTT Solvent (cat. no., ab211091; Abcam) was added into each well after incubation. The absorbance was evaluated at 590 nm. Cell-wells treated with 0.1% DMSO were used as positive control and no cell-wells were used as background control.
On the technique in general: Tetrazolium assays rely on reduction of a dye to a coloured formazan, in cell work by metabolically active cells.

Regarding `O=C(c1c[nH]c2ccccc12)c1c[nH]c2ccccc12` [DIM-one, 3,3′-diindolylmethanone], the IC50 with CaV1 came out at 61 ± 3.99 µM. For the compound `O=C(c1c[nH]c2cc(Br)ccc12)c1c[nH]c2cc(Br)ccc12` [IV], in the assay with CaV1, the IC50 stood at 38.8 ± 5.01 µM. For the same compound, the “inhibition of all the Ca2+ responses” value in assay [1] is recorded as “poor inhibition”. Turning to `O=C(c1cn(Cc2ccccc2)c2ccccc12)c1cn(Cc2ccccc2)c2ccccc12` [IX, bis(1-benzyl-1H-indol-3-yl)methanone], the IC50 with CaV1 worked out at 48 ± 2.79 µM. In addition, the “effect on cancer cell viability” value in assay [2] is “did not affect cancer cell viability”.

Consider `c1ccc2c(Cc3c[nH]c4ccccc34)c[nH]c2c1` [DIM, 3,3′-diindolylmethane, reference compound], for which the IC50 with CaV1 stood at 68.6 ± 6.65 µM.
